In patent US20070197424A1, “Glatiramer acetate for use as an immuno-modulatory agent” (priority 2003, published 2007):
“Also recorded” adds a separate entry of the source.

Tests used:
dendritic cells = details: through modulation of dendritic cells; cited from earlier work
[1] = system: relapsing-remitting multiple sclerosis; details: cited from earlier work
colitis-induced mice = test: TNBS-colitis in mice: macroscopic and microscopic colitis score; assay type: in vivo, mouse; details: treated vs control colitis-induced mice
Protocol: Each group includes 10 male animals.
(§1) Following Ketamine/Xylazine anesthesia, animals were sacrificed, and serum, colons are harvested at day 12. Blood samples are obtained and frozen at −20° C. until assayed for cytokine levels (IL2, IL4, IFNg, IL10 and TGFb). Splenocyte subpopulations are analyzed by FACS for CD4 and CD8, NK markers, and killer inhibitory and activation receptors. Colons are assessed for inflammatory severity.
Colitis induction as inflammatory bowel disease animal model: TNBS-colitis was induced by rectal instillation of TNBS, 1 mg/mouse, dissolved in 100 μl of 50% ethanol as described [Trop S, Samsonov D, Gotsman I, Alper R, Diment J and Ilan Y (1999) Hepatology 29: 746-755].
(§2) Liver and colon histology: The posterior one-third of the liver, the rectosigmoid colon were fixed in 10% formalin for 24 hours and then paraffin-embedded in an automated tissue processor. […] sections were cut from each animal specimen. Hematoxylin and eosin (H&E) staining was performed for each animal section.

serum cytokines = test: Serum cytokine levels in colitis-induced mice; assay type: in vivo, mouse; details: vs colitis-induced untreated group
Protocol: as §1

skin and thyroid grafts = details: cited from earlier work
splenocytes [2] = test: FACS analysis of splenocytes in CCl4-fibrosis induced mice; assay type: in vivo, mouse; details: for spleen CD4:CD8 ratio: vs CCl4-induced fibrosis untreated group, FIG. 7; for spleen total number of NK cells: vs untreated fibrotic and naive groups, FIG. 8
Protocol: (§3) Hepatic fibrosis was induced by IP CCl4 administration for 6 weeks in 8 week-old male wild-type C57Bl/6 mice. Within the last 2 weeks animals were also treated with either Copaxone 200 microgram/day I.P (Group A), Linomycin given by drinking water 1 mg/ml (Group B) or normal saline (group C), and were compared to naïve mice (Group D). Eight animals were included in each group. Hepatic fibrosis was evaluated by Ishak Knodell score [Knodell, R. G. et al., Hepatology 1981; 1(5):431-5], hydroxyproline and by analyzing 36 Sirius Red stained histological liver sections per animal with Bioquant® morphometry system. Splenocytes were isolated for FACS analysis from all animal groups. The correlation between hepatic fibrosis and CD4, CD8, NK cells, iKIR and aKIR expression on splenocytes was assessed.
(§4) Splenocyte isolation: Spleens were harvested at the time of sacrifice and fractionated through a 70-μm nylon cell strainer. After RBC lysis, splenocytes were washed, suspended in RPMI 1640 medium and stored at 4° C. until FACS analysis.
(§5) Fluorescent-activated cell sorting analysis (FACS): splenocytes are analysed by direct immunofluorescence reactivity with a series of antibodies (Abs) using standard techniques on a Coulter flow cytometer (BECTON DICKINSON, USA). Briefly, 3×10^5 spleen cells are incubated for 30 minutes at 4° C. with Abs conjugated to fluorescein isothiocyanate (FITC), phycoerythrin (PE) or allophycocyanin (APC), washed three times, and resuspended in fixative solution with 2% paraformaldehyde for analysis. Antibodies used for staining splenocytes are monoclonal anti-mouse CD4, CD8 conjugated by PE and FITC respectively (BD Biosciences). For staining natural killer (NK) cells APC-conjugated rat anti-mouse CD49b/Pan-NK cells monoclonal antibody which identifies the majority of NK cells is used. For killer inhibitory receptors (iKIR) monoclonal mouse anti-mouse Ly-49C and Ly-49I conjugated by PE are used. For the killer activating receptor (aKIR) FITC-conjugated rat anti-mouse LY-49D monoclonal antibody were used. To defined the role of T regulatory cells we used the anti CD25 monoclonal antibodies. To identify lymphocytes staining with peridinin chlorophyll-α protein (Per-CP)-conjugated rat anti-mouse CD45 (BD Biosciences) was used. Lymphocyte subsets are presented as percentage of the CD45+ cells.

[3] = system: graft-specific T cell lines; details: in vitro with stimulating allogeneic cells; cited from earlier work
intrahepatic lymphocytes = test: FACS analysis of intrahepatic lymphocytes in CCl4-fibrosis induced mice; assay type: in vivo, mouse
splenocytes [4] = test: FACS analysis of spleen cell populations in colitis-induced mice; assay type: in vivo, mouse
Protocol: as §1, §4, §5

[5] = system: CCl4-fibrosis induced mice; test: CCl4-induced hepatic fibrosis in mice: liver injury and fibrosis assessment; assay type: in vivo, mouse; details: for liver injury (Ishak injury score): CCl4 fibrosis-induced mice, treated vs untreated; for hepatic fibrosis (Ishak liver fibrosis scoring, Bioquant analysis): compared to the CCl4 fibrosis-induced untreated group, Copaxone 200 microgram/day I.P. or Linomycin 1 mg/ml drinking water, last 2 weeks of 6 weeks CCl4
Protocol: as §3
Hepatic fibrosis animal model: Hepatic fibrosis was induced by IP CCl4 (10% as diluted with corn oil) administration 5 microliter/g body weight; for 4-6 weeks in 8 week-old male mice.
as §2
Liver sections (15 μm) were stained in 0.1% Sirius Red F3B in saturated picric acid (both from Sigma). Additionally, alpha smooth muscle actin immunohistochemistry was performed using the DAKO kit (CAT# U7033 EPOS, Monoclonal) according to the manufacturer's instructions.
Hepatic Fibrosis quantitation: Relative fibrosis area (expressed as a % of total liver area) was assessed by analyzing 36 Sirius red-stained liver sections per animal. Each field was acquired at 10× magnification and then analyzed using a computerized Bioquant® morphometry system. To evaluate the relative fibrosis area, the measured collagen area was divided by the net field area and then multiplied by 100. Subtraction of vascular lumenal area from the total field area yielded the final calculation of the net fibrosis area.
Alpha smooth muscle actin immunoblot: Immunoblot analysis of Alpha-SMA in liver extracts is performed as previously described [de Waal Malefyt, R., et al., J. Exp. Med. 1991; 174:915-924] with modifications. Whole-liver protein extracts were prepared in liver homogenization buffer (50 mmol/L Tris-HCl [pH 7.6], 0.25% Triton-X 100, 0.15 M NaCl, 10 mM CaCl2 and complete mini EDTA-free protease inhibitor cocktail (Roche Diagnostics, Mannheim, Germany). Then proteins (30 μg per lane) were resolved on a 10% SDS-polyacrylamide gel under reducing conditions. For immunoblotting, proteins were transferred to a Protran membrane and incubated overnight at 4° C. in a blocking buffer containing 5% skim milk. Anti-SMA mouse monoclonal antibody (DAKO, cat# M0851) and peroxidase-conjugated goat anti-mouse IgG (P.A.R.I.S., Compiègne, France) and enhanced chemiluminescence were used.

Which IL-10 production (dendritic cells) does the source give for glatiramer acetate [Copaxone] here?
Its IL-10 production is “increase”.

What about the “Th2 CD4 cell development” value (dendritic cells) of the same substance?
Its value is “promote”.

And the “disease activity and burden of disease (MRI measures)” value ([1]; European/Canadian study)?
Its value is “significantly decrease”.

What about the tolerability ([1]; human, in vivo) of the same substance?
Its tolerability is “generally well tolerated”.

And the overall disability status ([1]; patients with RRMS)?
The overall disability status was “significantly improved”.

What about the “efficacy by relapse rate, proportion of relapse-free patients, number of gadolinium-enhancing lesions” value ([1]; subcutaneous 20 mg/day, patients with RRMS) of the same substance?
Its value is “significantly effective”.

What about the “macroscopic colitis score (tissue injury)” value (colitis-induced mice; FIG. 13a) of the same substance?
Its value is “prominent reduction”.

What about the “microscopic colitis score (tissue injury)” value (colitis-induced mice; FIG. 13b, p<0.03) of the same substance?
The value was “prominent reduction”.

And the “serum IL-10 level” value (serum cytokines; p<0.002, FIG. 18)?
The value was “significantly reduced”.

What about the “serum IL-4 level” value (serum cytokines; p<0.004, FIG. 18) of the same substance?
Its value is “significantly reduced”.

And the “serum IFN-γ level” value (serum cytokines; p<0.006, FIG. 18)?
The value was “significantly reduced”.

And the skin graft survival (skin and thyroid grafts; skin grafting assay)?
The skin graft survival was “prolonged”.

What about the “functional deterioration of thyroid grafts” value (skin and thyroid grafts; thyroid grafting assay) of the same substance?
The value was “inhibited”.

What about the “spleen CD4 cells” value (splenocytes [2]; between fibrotic groups A, B and C, FIG. 6) of the same substance?
The value was “no significant changes”.

And the “spleen CD8 cells” value (splenocytes [2]; compared to group C (p<0.05) or D (p<0.005), FIG. 6)?
Its value is “significantly decreased”.

What about the “spleen NK aKIR:NK iKIR ratio” value (splenocytes [2]; compared to the naive group (group D), p<0.0001, FIG. 9) of the same substance?
Its value is “significant increase”.

And the “spleen NK aKIR:NK iKIR ratio” value (splenocytes [2]; compared to the untreated fibrotic group (group C), p<0.05, FIG. 9)?
The value was “significantly lower”.

And the “spleen CD4:CD8 ratio” value (splenocytes [2])?
Its value is “increased; also recorded: significantly elevated”.

And the “spleen CD4:CD8 ratio” value (splenocytes [2]; listed as A)?
Its value is “significantly elevated”.

What about the “spleen total number of NK cells” value (splenocytes [2]) of the same substance?
Its value is “elevated”.

What about the “spleen total number of NK cells” value (splenocytes [2]; listed as A) of the same substance?
The value was “increased number”.

And the “interleukin-2 and interferon-gamma secretion of graft-specific T cell lines” value [3]?
The value was “inhibited”.

And the “proliferation of graft-specific T cell lines” value [3]?
The value was “inhibited”.

What about the “intrahepatic CD4 cells” value (intrahepatic lymphocytes; between fibrotic groups A and C, FIG. 10) of the same substance?
Its value is “no significant changes”.

What about the “intrahepatic NK cells number” value (intrahepatic lymphocytes; compared to fibrosis group C, p<0.0001, FIG. 12) of the same substance?
Its value is “significantly increased”.

What about the “intrahepatic CD8 cells” value (intrahepatic lymphocytes; compared to group C, p<0.001, FIG. 10) of the same substance?
Its value is “significantly decreased”.

And the “intrahepatic CD4:CD8 ratio” value (intrahepatic lymphocytes; compared to group C, p<0.002, FIG. 11)?
Its value is “significantly elevated”.

And the “CD4 IFN-γ secreting cells” value (splenocytes [4]; colitis induced-Copaxone treated group, p<0.02, FIG. 16)?
The value was “increase”.

What about the “spleen CD4 cell number” value (splenocytes [4]; colitis induced-Copaxone treated group, p<0.03, FIG. 15) of the same substance?
Its value is “significant increase”.

And the “spleen CD8 cell populations” value (splenocytes [4]; colitis-induced mice, FIG. 15)?
Its value is “unaffected”.

And the “antigen presenting cells (APC), spleen” value (splenocytes [4]; colitis-induced mice, FIG. 17)?
The value was “seemed to be reduced”.

What about the “anti-fibrotic effect in the animal model” value ([5]; CCl4 fibrosis mouse model, overall conclusion) of the same substance?
Its value is “significant anti-fibrotic effect”.

What about the “liver injury (Ishak injury score)” value ([5]; listed as Glatiramer acetate) of the same substance?
Its value is “reduced liver injury”.

What about the “liver injury (Ishak injury score)” value ([5]; listed as copaxon) of the same substance?
The value was “no significant difference”.

And the “liver injury (Ishak injury score)” value ([5]; listed as glatiramer acetate)?
The value was “significantly lower”.

And the “fibrosis severity, % of collagen in the analyzed area” value ([5]; after CCl4 fibrosis induction, p<0.0001, FIG. 4)?
The value was “significantly reduced”.

What about the “hepatic fibrosis (Ishak liver fibrosis scoring, Bioquant analysis)” value [5] of the same substance?
Its value is “significant reduction of fibrosis”.

And the “hepatic fibrosis (Ishak liver fibrosis scoring, Bioquant analysis)” value ([5]; listed as glatiramer acetate)?
The value was “significantly lower”.

What about the “alpha smooth muscle actin amounts (Western blot, liver)” value ([5]; vs CCl4 animal group, FIG. 5) of the same substance?
The value was “significantly reduced”.
